Measured values published in patent US9770441B1, “Crystalline solid forms of 6-carboxy-2-(3,5-dichlorophenyl)-benzoxazole” (Pfizer Inc., priority 2014, dated 2017).

Key:
[1] = isothermal vapor sorption analysis; format: physicochemical; conditions: up to 90% relative humidity, ambient temperature
Experimental: Form 1 was analyzed via isothermal vapor sorption analysis, which is a gravimetric technique that measures how quickly and how much of a solvent is absorbed by a sample: such as a dry powder absorbing water. It does this by varying the vapor concentration surrounding the sample and measuring the change in mass which this produces.

[2] = hygroscopicity as stated in the description of the solid form; format: physicochemical; conditions: crystalline anhydrous form

O=C(O)c1ccc2nc(-c3cc(Cl)cc(Cl)c3)oc2c1 [Form 1, 6-carboxy-2-(3,5-dichlorophenyl)-benzoxazole]
reversible weight gain [1]: less than 0.25%
hygroscopicity of the solid form [2]: non-hygroscopic
